Assay results as given in patent US20190255078A1, “TOPICAL COMPOSITIONS WITH STABLE SOLUBILIZED SELECTIVE RETINOIDS AND/OR TETRACYCLINE-CLASS ANTIBIOTICS” (BioPharmX, Inc., priority 2018, published 2019).
Each block holds one compound with its values, some of them ahead of it.

Key:
[1] = cited from earlier work
[2] = test system: antibiotic-resistant P. acnes; settings: clinical isolates of antibiotic-resistant P. acnes; cited from earlier work
[3] = Stability of tazarotene in solution with antioxidants and/or magnesium chloride (Example 3A); type: physicochemical
Description: Retinoids can undergo chemical degradation in solutions due to oxidation. However, many antioxidants are not effective in sufficiently stabilizing retinoids in a pharmaceutical composition. A study was performed in which samples consisting of 0.05% (w/w) tazarotene dissolved in 79.15% (w/w) ethanol (anhydrous), 0.6% hydroxypropyl cellulose HF (KLUCEL HF), 20% propylene glycol, and 0.20% (w/w) of an antioxidant were stored in a sealed amber glass container for 8 weeks at 40° C. For the tested composition with no antioxidant, the additional 0.20% was made up with ethanol (anhydrous).
Only one of the antioxidants improved the stability of tazarotene: propyl gallete, reducing the degradation from 5% to 1% over the 8-week period. In contrast, the antioxidant ascorbic acid increased the degradation from 5% to approximately 50% over the 8-week period.
Similarly, divalent cations such as magnesium, are also ineffective in stabilizing tazarotene. A mixture comprising ethanol, 0.6% magnesium chloride, and 0.05% tazarotene was stored in a sealed amber glass container for 13 weeks at 40° C.
A mixture comprising ethanol, 0.6% magnesium chloride, 0.2% sodium metabisulfite, and 0.05% tazarotene was stored in a sealed amber glass container for 13 weeks at 40° C. The tazarotene degraded by 3% over the 13-week period in comparison to 5% degradation for a mixture comprising ethanol and 0.05% tazarotene (and without magnesium chloride or an antioxidant) over the same period. […] Measurements for an additional composition comprising ethanol, 0.20% sodium metabisulfite, and 0.05% tazarotene (without the presence of magnesium chloride) were taken at 0, 1, 2, 4, and 8 weeks. Only the data at 0 and 8 weeks are presented in FIG. 3A for this composition. Data for this composition was not captured at 13 weeks.

[4] = as above; type: physicochemical; settings: ethanol (anhydrous), sodium metabisulfite, sealed amber glass
[5] = Stability at 40° C. of single and dual API compositions of Table 13-1 (Example 10); settings: 6 months
Description: The exemplary compositions comprised tazarotene, minocycline, or a combination thereof. Each composition was stored at room temperature for 2 and 5 weeks in a sealed amber glass container at 40° C.

[6] = Solubility of tazarotene in solvents and solvent mixtures (Example 2); type: physicochemical
Description: Tazarotene is known to have low solubility in many traditional solvent systems. […] However, compositions with ethanol as the only solvent are typically irritating to the skin, have a pungent smell, and leave the skin feeling dry. […] It has been discovered that that mixtures of ethanol and carboxylate esters have higher solubility of tazarotene than would be expected from mixtures of the components individually.
Tazarotene is desirably used in compositions at a concentration of 0.01% to 0.20% (w/w). […].
As shown in Table 5 and FIG. 2, the tazarotene solubility in selected binary and tertiary mixtures was even higher than the solubility of tazarotene in ethanol alone. […] Even small amounts of carboxylate esters can have unexpectedly large effects.
Thus, the tazarotene in selected ranges of binary mixtures was higher than the solubility of tazarotene in the individual components of the solvent mixture.

[7] = Room temperature stability of tazarotene and minocycline in single and combination compositions (Example 5); type: physicochemical; settings: 18 months

Compound: COc1ccc(-c2ccc3cc(C(=O)O)ccc3c2)cc1C12CC3CC(CC(C3)C1)C2 [Adapalene, 6-[3-(1-adamantyl)-4-methoxy-phenyl]naphthalene-2-carboxylic acid]
log P [1]: approximately 6

Compound: C[C@H]1c2cccc(O)c2C(=O)C2=C(O)[C@]3(O)C(=O)C(C(N)=O)=C(O)[C@@H](N(C)C)[C@@H]3[C@@H](O)[C@@H]21 [doxycycline, (4S,4aR,5S,5aR,6R,12aS)-4-(dimethylamino)-3,5,10,12,12a-pentahydroxy-6-methyl-1,11-dioxo-1,4,4a,5,5a,6,11,12a-octahydrotetracene-2-carboxamide]
Log P ([1]; free base form): about −0.02 | average MIC90 [2]: 8 µg/mL

Compound: CC[C@H]1OC(=O)[C@H](C)[C@@H](O[C@H]2C[C@@](C)(OC)[C@@H](O)[C@H](C)O2)[C@H](C)[C@@H](O[C@@H]2O[C@H](C)C[C@H](N(C)C)[C@H]2O)[C@](C)(O)C[C@@H](C)C(=O)[C@H](C)[C@@H](O)[C@]1(C)O [erythromycin]
average MIC90 [2]: ~512 µg/mL

Reduction in Tazarotene concentration after 8 weeks at 40° C. (% degradation relative to baseline tazarotene) ([3]; 0.05% tazarotene in ethanol/20% propylene glycol/0.6% HPC, antioxidant: none): 5% | Reduction in Tazarotene concentration after 8 weeks at 40° C. (% degradation relative to baseline tazarotene) ([3]; antioxidant: 0.20% BHT): 5% | Reduction in Tazarotene concentration after 8 weeks at 40° C. (% degradation relative to baseline tazarotene) ([3]; antioxidant: 0.20% Dl-Alpha Tocopherol): 5% | Reduction in Tazarotene concentration after 8 weeks at 40° C. (% degradation relative to baseline tazarotene) ([3]; antioxidant: 0.20% propyl gallete): 1% | Reduction in Tazarotene concentration after 8 weeks at 40° C. (% degradation relative to baseline tazarotene) ([3]; antioxidant: 0.20% sodium metabisulfite (SMBS)): 8% | Reduction in Tazarotene concentration after 8 weeks at 40° C. (% degradation relative to baseline tazarotene) ([3]; antioxidant: 0.20% sodium nitrate): 10% | Reduction in Tazarotene concentration after 8 weeks at 40° C. (% degradation relative to baseline tazarotene) ([3]; antioxidant: 0.20% sodium sulfite): 10% | Reduction in Tazarotene concentration after 8 weeks at 40° C. (% degradation relative to baseline tazarotene) ([3]; antioxidant: 0.20% tocopherol): 5% | tazarotene degradation over 13 weeks at 40° C. ([3]; ethanol and 0.05% tazarotene, without magnesium chloride or antioxidant): 5% | tazarotene degradation over 13 weeks at 40° C. ([3]; ethanol, 0.6% magnesium chloride, 0.05% tazarotene, sealed amber glass): 13% | tazarotene degradation over 13 weeks at 40° C. ([3]; ethanol, 0.6% magnesium chloride, 0.2% sodium metabisulfite, 0.05% tazarotene): 3% | tazarotene degradation when stored for 12 months at room temperature [4]: less than 7% | stability when added in combination versus alone ([5]; compositions of Table 13-1): more stable | stability in single API and dual API compositions ([5]; compositions of Table 13-1 (FIGS. 8A-8B)): stable | tazarotene solubility relative to solubility in ester alone ([6]; ethanol and at least one carboxylate ester, binary and tertiary mixtures): 2-5 times | TAZAROTENE SOLUBILITY ([6]; ethanol and diisopropyl adipate 1:1 (W/W)): 39.0 mg/g | TAZAROTENE SOLUBILITY ([6]; ethanol and diisopropyl adipate 9:1 (W/W)): 23.3 mg/g | TAZAROTENE SOLUBILITY ([6]; ethanol and dimethyl succinate 20:80 (W/w)): 109.42 mg/g | TAZAROTENE SOLUBILITY ([6]; ethanol and dimethyl succinate 40:60 (W/w)): 103.65 mg/g | TAZAROTENE SOLUBILITY ([6]; ethanol and dimethyl succinate 60:40 (W/w)): 67.18 mg/g | TAZAROTENE SOLUBILITY ([6]; ethanol and dimethyl succinate 80:20 (W/w)): 45.30 mg/g | TAZAROTENE SOLUBILITY ([6]; ethanol and isopropyl myristate 1:1 (W/W)): 37.8 mg/g | TAZAROTENE SOLUBILITY ([6]; ethanol and isopropyl myristate 9:1 (W/W)): 34.8 mg/g | TAZAROTENE SOLUBILITY ([6]; ethanol and medium chain triglyceride 1:1 (W/W)): 38.6 mg/g | TAZAROTENE SOLUBILITY ([6]; ethanol and medium chain triglyceride 9:1 (W/W)): 23.5 mg/g | TAZAROTENE SOLUBILITY ([6]; ethanol and propyl acetate 20:80 (W/w)): 179.99 mg/g | TAZAROTENE SOLUBILITY ([6]; ethanol and propyl acetate 40:60 (W/w)): 139.85 mg/g | TAZAROTENE SOLUBILITY ([6]; ethanol and propyl acetate 60:40 (W/w)): 80.16 mg/g | TAZAROTENE SOLUBILITY ([6]; ethanol and propyl acetate 80:20 (W/w)): 44.12 mg/g | TAZAROTENE SOLUBILITY ([6]; ethanol and propylene glycol 1:1 (W/W)): 10.3 mg/g | TAZAROTENE SOLUBILITY ([6]; ethanol and propylene glycol 4:1 (W/W)): 22.3 mg/g | TAZAROTENE SOLUBILITY ([6]; ethanol, glycerol, and isopropyl myristate 7:2:1 (W/W)): 30.3 mg/g | TAZAROTENE SOLUBILITY ([6]; ethanol, propylene glycol, and diisopropyl adipate 7:2:1 (W/W)): 24.9 mg/g | TAZAROTENE SOLUBILITY ([6]; ethanol, propylene glycol, and dimethyl succinate 7:2:1 (W/W)): 30.1 mg/g | TAZAROTENE SOLUBILITY ([6]; ethanol, propylene glycol, and isopropyl myristate 7:2:1 (W/W)): 32.3 mg/g | TAZAROTENE SOLUBILITY ([6]; ethanol, propylene glycol, and medium chain triglycerides 7:2:1 (W/W)): 24.4 mg/g | TAZAROTENE SOLUBILITY ([6]; ethanol, propylene glycol, and propyl acetate 7:2:1 (W/W)): 29.1 mg/g | TAZAROTENE SOLUBILITY ([6]; in diisopropyl adipate): 1.21 mg/g | TAZAROTENE SOLUBILITY ([6]; in dimethyl succinate): 63.18 mg/g | TAZAROTENE SOLUBILITY ([6]; in isopropyl myristate): 0.75 mg/g | TAZAROTENE SOLUBILITY ([6]; in medium chain triglycerides): 0.16 mg/g | TAZAROTENE SOLUBILITY ([6]; in propyl acetate): 138.04 mg/g | TAZAROTENE SOLUBILITY ([6]; in propylene glycol): 0.0054 mg/g | TAZAROTENE SOLUBILITY ([6]; propylene glycol and diisopropyl adipate 2:0 (W/W)): 5.6 mg/g | TAZAROTENE SOLUBILITY ([6]; propylene glycol and dimethyl succinate 2:1 (W/W)): 1.27 mg/g | TAZAROTENE SOLUBILITY ([6]; propylene glycol and isopropyl myristate 2:1 (W/W)): 6.0 mg/g | TAZAROTENE SOLUBILITY ([6]; propylene glycol and propyl acetate 2:1 (W/W)): 1.55 mg/g | solubility for tazarotene in combined solvent systems ([6]; selected ratios of carboxylate esters to monohydric aliphatic alcohol): at least 25 mg/g | stability when added in combination versus each drug alone ([7]; compositions of Table 9): more stable | stability in compositions of Table 9 ([7]; sealed amber glass): stable after 18 months
Compound: CCOC(=O)c1ccc(C#Cc2ccc3c(c2)C(C)(C)CCS3)nc1 [tazarotene, ethyl 6-[2-(4,4-dimethyl-2,3-dihydrothiochromen-6-yl)ethynyl]pyridine-3-carboxylate]
log P [1]: ~4.3
